From patent publication EP0090603A2, “Antibacterial compounds” (BEECHAM GROUP PLC, priority 1982, dated 1983)
Converted amounts (≈) assume the structure as drawn.

Experiments:
M. suipneumoniae MS 16 = test: MIC against Mycoplasma, in vitro agar dilution; type: cell-based; conditions: Mesomycoplasma hyopneumoniae, MS16, 144 h; Friis broth solidified with 0.9% agarose, 10^3 to 10^5 C.F.U., 6 days at 37°C; read-out: MIC's against M. suipneumoniae MS 16
[1] = test system: M. suipneumoniae J2206/183^b; test: MIC against Mycoplasma, in vitro agar dilution; type: cell-based; conditions: Mesomycoplasma hyopneumoniae, 144 h; Friis broth solidified with 0.9% agarose, 10^3 to 10^5 C.F.U., 6 days at 37°C; read-out: MIC's against M. suipneumoniae J2206/183^b
M. hyorhinis ATCC 25021 = test: MIC against Mycoplasma, in vitro agar dilution; type: cell-based; conditions: Mesomycoplasma hyorhinis, ATCC25021, 144 h; Friis broth solidified with 0.9% agarose, 10^3 to 10^5 C.F.U., 6 days at 37°C; read-out: MIC's against M. hyorhinis ATCC 25021
[2] = test system: M. suipneumoniae NCTC 10110; test: MIC against Mycoplasma, in vitro agar dilution; type: cell-based; conditions: Mesomycoplasma hyopneumoniae, NCTC10110, 144 h; Friis broth solidified with 0.9% agarose, 10^3 to 10^5 C.F.U., 6 days at 37°C; read-out: MIC's against M. suipneumoniae NCTC 10110
Past. multocida PA2 = test: MIC against Veterinary Bacteria, in vitro agar dilution; conditions: Pasteurella multocida, PA2, 18 h, read-out: MIC's against Past. multocida PA2
Description: (§1) The activity of the compounds of the Examples against various veterinarily important bacteria, was assayed in vitro using two-fold serial dilutions in Diagnostic Sensitivity Test Agar inoculated with 10^4 organisms.

M. suipneumoniae LABER = test: MIC against Mycoplasma, in vitro agar dilution; type: cell-based; conditions: Mesomycoplasma hyopneumoniae, 144 h; Friis broth solidified with 0.9% agarose, 10^3 to 10^5 C.F.U., 6 days at 37°C; read-out: MIC's against M. suipneumoniae LABER
M. suipneumoniae NB12 = test: MIC against Mycoplasma, in vitro agar dilution; type: cell-based; conditions: Mesomycoplasma hyopneumoniae, NB12, 144 h; Friis broth solidified with 0.9% agarose, 10^3 to 10^5 C.F.U., 6 days at 37°C; read-out: MIC's against M. suipneumoniae NB12
[3] = test system: M. bovigenitalium ATCC 14173; test: MIC against Mycoplasma, in vitro agar dilution; type: cell-based; conditions: 144 h; Friis broth solidified with 0.9% agarose, 10^3 to 10^5 C.F.U., 6 days at 37°C; read-out: MIC's against M. bovigenitalium ATCC 14173
[4] = test system: Staph. aureus 152 (pen. sens); test: MIC against Veterinary Bacteria, in vitro agar dilution; conditions: Staphylococcus aureus, 18 h, read-out: MIC's against Staph. aureus 152 (pen. sens)
Description: as §1

M. suipneumoniae JF 435 = test: MIC against Mycoplasma, in vitro agar dilution; type: cell-based; conditions: Mesomycoplasma hyopneumoniae, JF435, 144 h; Friis broth solidified with 0.9% agarose, 10^3 to 10^5 C.F.U., 6 days at 37°C; read-out: MIC's against M. suipneumoniae JF 435
Strep. agalactiae SPA1 = test: MIC against Veterinary Bacteria, in vitro agar dilution; conditions: Streptococcus agalactiae, SPA1, 18 h, read-out: MIC's against Strep. agalactiae SPA1
Description: as §1

S. dublin S7 = test: as above; conditions: Salmonella enterica, S7, 18 h, read-out: MIC's against S. dublin S7
Description: as §1

M. suipneumoniae UCD 1 = test: MIC against Mycoplasma, in vitro agar dilution; type: cell-based; conditions: Mesomycoplasma hyopneumoniae, UCD1, 144 h; Friis broth solidified with 0.9% agarose, 10^3 to 10^5 C.F.U., 6 days at 37°C; read-out: MIC's against M. suipneumoniae UCD 1
S. typhimurium S18 = test: MIC against Veterinary Bacteria, in vitro agar dilution; conditions: Salmonella enterica, TYPHIMURIUM, 18 h, read-out: MIC's against S. typhimurium S18
Description: as §1

Bord. bronchiseptica B09 = test: as above; conditions: Bordetella bronchiseptica, B09, 18 h, read-out: MIC's against Bord. bronchiseptica B09
Description: as §1

[5] = test system: M. hyosynoviae ATCC 25591; test: MIC against Mycoplasma, in vitro agar dilution; type: cell-based; conditions: 144 h; Friis broth solidified with 0.9% agarose, 10^3 to 10^5 C.F.U., 6 days at 37°C; read-out: MIC's against M. hyosynoviae ATCC 25591
Bord. bronchiseptica B08 = test: MIC against Veterinary Bacteria, in vitro agar dilution; conditions: Bordetella bronchiseptica, B08, 18 h, read-out: MIC's against Bord. bronchiseptica B08
Description: as §1

M. hyorhinis ATCC 23234 = test: MIC against Mycoplasma, in vitro agar dilution; type: cell-based; conditions: Mesomycoplasma hyorhinis, ATCC23234, 144 h; Friis broth solidified with 0.9% agarose, 10^3 to 10^5 C.F.U., 6 days at 37°C; read-out: MIC's against M. hyorhinis ATCC 23234
Strep. uberis SPU1 = test: MIC against Veterinary Bacteria, in vitro agar dilution; conditions: Streptococcus uberis, SPU1, 18 h, read-out: MIC's against Strep. uberis SPU1
Description: as §1

E. coli NCTC 10418 = test: as above; conditions: Escherichia coli, NCTC10418, 18 h, read-out: MIC's against E. coli NCTC 10418
Description: as §1

Staph. aureus Oxford = test: as above; conditions: Staphylococcus aureus, 18 h, read-out: MIC's against Staph. aureus Oxford
Description: as §1

M. suipneumoniae TAM 6N = test: MIC against Mycoplasma, in vitro agar dilution; type: cell-based; conditions: Mesomycoplasma hyopneumoniae, TAM6N, 144 h; Friis broth solidified with 0.9% agarose, 10^3 to 10^5 C.F.U., 6 days at 37°C; read-out: MIC's against M. suipneumoniae TAM 6N
M. pneumoniae ATCC 15492 = test: MIC against Mycoplasma, in vitro agar dilution; type: cell-based; conditions: Mycoplasmoides pneumoniae, ATCC15492, 144 h; Friis broth solidified with 0.9% agarose, 10^3 to 10^5 C.F.U., 6 days at 37°C; read-out: MIC's against M. pneumoniae ATCC 15492

SMILES	MIC (M. suipneumoniae MS 16)	MIC [1]	MIC (M. hyorhinis ATCC 25021)	MIC [2]	MIC (Past. multocida PA2)	MIC (M. suipneumoniae LABER)	MIC (M. suipneumoniae NB12)	MIC [3]	MIC [4]	MIC (M. suipneumoniae JF 435)	MIC (Strep. agalactiae SPA1)	MIC (S. dublin S7)	MIC (M. suipneumoniae UCD 1)	MIC (S. typhimurium S18)	MIC (Bord. bronchiseptica B09)	MIC [5]	MIC (Bord. bronchiseptica B08)	MIC (M. hyorhinis ATCC 23234)	MIC (Strep. uberis SPU1)	MIC (E. coli NCTC 10418)	also measured
COC(=O)C(C)=C(C)CC1OCC(CC2OC2C(C)C(C)O)C(O)C1O [Example 2, Methyl 4-[5S-(2S,3S-epoxy-5S-hydroxy-4S-methylhexyl)-3R,4R-dihydroxytetrahydropyran-2S-yl]-2,3-dimethylbut-2(E)-enoate]	5 µg/mL (≈ 13.4 µM)	5 µg/mL (≈ 13.4 µM)	5 µg/mL (≈ 13.4 µM)	5 µg/mL (≈ 13.4 µM)	5 µg/mL (≈ 13.4 µM)	5 µg/mL (≈ 13.4 µM)	5 µg/mL (≈ 13.4 µM)	0.5 µg/mL (≈ 1.34 µM)	5 µg/mL (≈ 13.4 µM)	10 µg/mL (≈ 26.8 µM)	80 µg/mL (≈ 215 µM)	> 80 µg/mL	10 µg/mL (≈ 26.8 µM)	> 80 µg/mL	40 µg/mL (≈ 107 µM)	5 µg/mL (≈ 13.4 µM)	> 80 µg/mL	5 µg/mL (≈ 13.4 µM)	20 µg/mL (≈ 53.7 µM)	> 80 µg/mL	MIC (Staph. aureus Oxford): 5 µg/mL (≈ 13.4 µM); MIC (M. suipneumoniae TAM 6N): 10 µg/mL (≈ 26.8 µM)
CC(CC1OCC(CC2OC2C(C)C(C)O)C(O)C1O)=C(C)C(=O)O [Example 4, Sodium 4-[5S-(2S, 35-epoxy-5S-hydroxy-4S-methylhexyl)-3R,4R-dihydroxytetrahydropyran-2S-yl]-2,3-dimethylbut-2(E)-enoate]	0.1 µg/mL	0.25 µg/mL	0.1 µg/mL	0.25 µg/mL	2.5 µg/mL	0.1 µg/mL	0.25 µg/mL	0.05 µg/mL	1.25 µg/mL	0.25 µg/mL	1.25 µg/mL	> 80 µg/mL	0.25 µg/mL	> 80 µg/mL	40 µg/mL	0.25 µg/mL	> 80 µg/mL	0.1 µg/mL	0.156 µg/mL	> 80 µg/mL	MIC (M. pneumoniae ATCC 15492): 5 µg/mL; MIC (Staph. aureus Oxford): 1.25 µg/mL; MIC (M. suipneumoniae TAM 6N): 0.25 µg/mL
CCOC(=O)C(C)=C(C)CC1OCC(CC2OC2C(C)C(C)O)C(O)C1O [Example 1, Ethyl 4-[5S-(2S,3S-epoxy-5S-hydroxy-4S-methylhexyl)-3R,4R-dihydroxytetrahydropyran-2S-yl]-2,3-dimethylbut-2(E)-enoate]	0.5 µg/mL (≈ 1.29 µM)	2.5 µg/mL (≈ 6.47 µM)	0.5 µg/mL (≈ 1.29 µM)	1 µg/mL (≈ 2.59 µM)	1.25 µg/mL (≈ 3.23 µM)	1 µg/mL (≈ 2.59 µM)	1 µg/mL (≈ 2.59 µM)	0.05 µg/mL (≈ 0.129 µM)	0.625 µg/mL (≈ 1.62 µM)	1 µg/mL (≈ 2.59 µM)	5 µg/mL (≈ 12.9 µM)	> 80 µg/mL	2.5 µg/mL (≈ 6.47 µM)	> 80 µg/mL	80 µg/mL (≈ 207 µM)	1 µg/mL (≈ 2.59 µM)	> 80 µg/mL	0.5 µg/mL (≈ 1.29 µM)	1.25 µg/mL (≈ 3.23 µM)	> 80 µg/mL	MIC (M. pneumoniae ATCC 15492): 10 µg/mL (≈ 25.9 µM); MIC (Staph. aureus Oxford): 0.625 µg/mL (≈ 1.62 µM); MIC (M. suipneumoniae TAM 6N): 2.5 µg/mL (≈ 6.47 µM)
CC(CC1OCC(CC2OC2C(C)C(C)O)C(O)C1O)=C(C)C(=O)OCc1cccc([N+](=O)[O-])c1 [Example 3, m-Nitrobenzyl 4-[5S-(2S,3S-epoxy-5S-hydroxy-4S-methylhexyl)-3R,4R-dihydroxytetrahydropyran-2S-yl]-2,3-di-methylbut-2(E)-enoate]	0.025 µg/mL (≈ 0.0507 µM)	0.1 µg/mL (≈ 0.203 µM)	0.025 µg/mL (≈ 0.0507 µM)	0.05 µg/mL (≈ 0.101 µM)	1.25 µg/mL (≈ 2.53 µM)	0.05 µg/mL (≈ 0.101 µM)	0.05 µg/mL (≈ 0.101 µM)	0.025 µg/mL (≈ 0.0507 µM)	1.25 µg/mL (≈ 2.53 µM)	0.1 µg/mL (≈ 0.203 µM)	1.25 µg/mL (≈ 2.53 µM)	> 80 µg/mL	0.05 µg/mL (≈ 0.101 µM)	> 80 µg/mL	80 µg/mL (≈ 162 µM)	0.25 µg/mL (≈ 0.507 µM)	80 µg/mL (≈ 162 µM)	0.025 µg/mL (≈ 0.0507 µM)	0.156 µg/mL (≈ 0.316 µM)	> 80 µg/mL	MIC (M. pneumoniae ATCC 15492): 2.5 µg/mL (≈ 5.07 µM); MIC (Staph. aureus Oxford): 1.25 µg/mL (≈ 2.53 µM); MIC (M. suipneumoniae TAM 6N): 0.1 µg/mL (≈ 0.203 µM)
